Source: US11149062B2, “HDAC inhibitors and methods of treatment using the same” (UWM Research Foundation, Inc., priority 2015, dated 2021)
Entries after “also recorded” stand apart in the source; their conditions may differ. Where two headings read alike, the source gives them in different places.

Tests used:
[1] = Maximum tolerated dose (MTD); details: BALB/c, mouse, in vivo, ip
Text: (§1) BALB/c mice were purchased from The Jackson Laboratory (Bar Harbor, Me.) and used between 7 and 10 weeks of age. Mice were housed in a conventional animal vivarium and were given free access to food and water. All studies and procedures were approved by the Animal Care and Use Committee of the University of Wisconsin, Milwaukee.
(§2) Each animal was initially weighed using a digital scale and then intraperitoneally (IP) injected with the compounds (listed in Table 2). A single mouse was given a single IP dose of 200 mg/kg, body weight, a second mouse received a dose of 100 mg/kg and a third mouse received a single dose of 50 mg/kg. The mice were observed and weighed every other day for a period of 2 weeks. They were euthanized if they lost more than 20% of their body weight or if there were other signs of significant toxicity. […] This process was repeated until a tolerated dose was found, and the MTD value was determined.
(§3) To determine the MTD in vivo, the compounds listed above were injected intraperitoneally into BALB/c mice and morbidity and mortality were monitored over two weeks.

BALB/c mice = test: Maximum tolerated dose (MTD)
Text: as §1, §2, §3

Recombinant human HDAC4 = molecular target: T1, Recombinant human HDAC4 (Homo sapiens, UniProt P56524); test: HDAC-Glo I/II assay, HDAC4; assay type: biochemical
T1 construct: purchased BPS Bioscience Inc
Protocol: (§4) The purified compounds of all fragments and natural product derivatives were evaluated for inhibitory effects on three different classes of HDAC proteins (class I, IIa, and IIb). […] All activity was determined by using a fluorescence-based in vitro assay. Class I HDAC proteins that were evaluated were HDAC1, HDAC2, HDAC3, HDAC8, HDAC4, and HDAC6. Class IIa HDAC protein were HDAC4 and the Class IIb HDAC protein were HDAC6.
(§5) HDAC-Glo™ I/II Assay and Screening System (Promega) was used to determine the HDAC inhibitory activity. Recombinant human HDAC1, HDAC2, HDAC3, HDAC4, HDAC6 and HDAC8 were purchased from BPS Bioscience Inc. The inhibitory activities of the test compounds against recombinant HDAC were performed according to reagent suppliers' protocols.
(§6) All test compounds were firstly dissolved in DMSO to make 10 mM stock solution. A certain amount of stock solution was diluted to 1 mM by DMSO and then reduced by tris(2-carboxyethyl)phosphine hydrochloride (TCEP) in a molar ration of 1:1.5 for 20 min at ambient temperature prior to being assayed. After reduction, a series of fivefold dilutions of each reduced compound were prepared with HDAC-Glo buffer and 25 μL of each dilution was added into a well on a 96-well plate. HDAC enzymes were diluted to the desired concentrations with HDAC-Glo buffer and 25 μL of each diluted enzyme was dispensed into a well to mix with 25 μL of testing compound at room temperature for 30-60 seconds. After the reaction mixture had been incubated at room temperature for 1 hour, 50 μL of HDAC-Glo reagent was added to each reaction well and mixed up for 30-60 seconds. Finally, the plate was incubated at room temperature for an additional 30 minutes before the luminescence was measured on a Synergy HT plate reader (Bio-Tek). The luminescence intensity data were analyzed using GraphPad Prism 5 (GraphPad Software). In the absence of any test compound, the luminescence intensity (I100) in each data set was defined as 100% activity. In the absence of both of HDAC enzymes and test compound, the luminescence intensity (I0) in each data set was defined as 0% activity. The relative activity (%) in the presence of each compound was calculated according to the following equation: % activity=(I−I0)/(I100−I0), where I=the luminescence intensity if a compound is present in the reaction. Experiments were performed in triplicate and the calculated mean values were used for plotting.

HCT-116 (colon cancer) = test: MTT antiproliferative assay, HCT-116; assay type: cell-based; details: Homo sapiens, read-out: Antiproliferative Activity GI50, Colon HCT-116
Protocol: (§7) Briefly, the tumor cells (1×10^4 cells/well) were seeded in 96-well microtiter plates and incubated for 24 h at 37° C. Following incubation, the media was replaced with fresh media containing the above compounds at concentrations ranging from 1 μM to 1 pM diluted in DMSO and incubated for an additional 48 h. Drugs were run in duplicate or triplicate and control cells received fresh media with DMSO concentration equivalent to the treatment groups. […] After aspirating the culture medium, 200 μL of DMSO was added to dissolve the precipitate and the resulting solution was measured for absorbance at 570 nm with a reference wavelength of 690 nm using a microplate reader (Infinite M200 Pro TECAN).

HeLa (cervical cancer) = test: MTT antiproliferative assay, HeLa; assay type: cell-based; details: Homo sapiens, 48 h, read-out: Antiproliferative Activity GI50, Cervical HeLa
Protocol: as §7

RFX393 (renal) = test: MTT antiproliferative assay, RFX393; assay type: cell-based; details: 48 h, read-out: Antiproliferative Activity GI50, Renal RFX393
Protocol: as §7

Recombinant human HDAC1 = molecular target: T2, Recombinant human HDAC1 (Homo sapiens, UniProt Q13547); test: HDAC-Glo I/II assay, HDAC1; assay type: biochemical; details: for Class I selectivity Ratio HDAC 1/HDAC8: ratio of IC50 values
T2 construct: purchased BPS Bioscience Inc
Protocol: as §4, §5, §6

class I HDACs = test: HDAC-Glo I/II assay, class I HDACs; assay type: biochemical, human; details: methyl esters compared with TDF4, TDF5, TDF6
Protocol: The purified compounds of all fragments and natural product derivatives were evaluated for inhibitory effects on three different classes of HDAC proteins (class I, IIa, and IIb). The natural products FK228, SAHA, TDP-A, and TDP-B were used as a positive control. All activity was determined by using a fluorescence-based in vitro assay. Class I HDAC proteins that were evaluated were HDAC1, HDAC2, HDAC3, HDAC8, HDAC4, and HDAC6. Class IIa HDAC protein were HDAC4 and the Class IIb HDAC protein were HDAC6.
as §5
as §6, with “After reduction, a series of fivefold dilutions of each reduced compound were prepared with HDAC-Glo buffer and 25 μL of each dilution was added into a well on a 96-well plate. HDAC enzymes were diluted to the desired concentrations with HDAC-Glo buffer and 25 μL of each diluted enzyme was dispensed into a well to mix with 25 μL of testing compound at room temperature for 30-60 seconds. After the reaction mixture had been incubated at room temperature for 1 hour, 50 μL of HDAC-Glo reagent was added to each reaction well and mixed up for 30-60 seconds.” left out

Recombinant human HDAC3 = molecular target: T3, Recombinant human HDAC3 (Homo sapiens, UniProt O15379); test: HDAC-Glo I/II assay, HDAC3; assay type: biochemical; details: Class I HDAC; compounds reduced by TCEP prior to assay
T3 construct: purchased BPS Bioscience Inc
Protocol: as §4, §5, §6

Recombinant human HDAC8 = molecular target: T4, Recombinant human HDAC8 (Homo sapiens, UniProt Q9BY41); test: HDAC-Glo I/II assay, HDAC8; assay type: biochemical; details: Class I HDAC; compounds reduced by TCEP prior to assay
T4 construct: purchased BPS Bioscience Inc
T4 sequence (Q9BY41 1-377): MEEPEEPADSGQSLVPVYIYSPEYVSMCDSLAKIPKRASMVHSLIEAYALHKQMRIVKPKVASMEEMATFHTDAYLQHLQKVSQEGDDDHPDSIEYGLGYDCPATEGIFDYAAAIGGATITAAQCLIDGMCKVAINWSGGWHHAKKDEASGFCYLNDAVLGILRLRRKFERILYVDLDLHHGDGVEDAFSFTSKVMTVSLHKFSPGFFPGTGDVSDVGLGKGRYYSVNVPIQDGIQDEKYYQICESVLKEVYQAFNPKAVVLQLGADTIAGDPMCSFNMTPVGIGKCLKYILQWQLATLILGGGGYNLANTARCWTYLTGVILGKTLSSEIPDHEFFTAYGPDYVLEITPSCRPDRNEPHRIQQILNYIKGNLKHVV
Protocol: as §4, §5, §6

Recombinant human HDAC2 = molecular target: T5, Recombinant human HDAC2 (Homo sapiens, UniProt Q92769); test: HDAC-Glo I/II assay, HDAC2; assay type: biochemical; details: Class I HDAC; compounds reduced by TCEP prior to assay
T5 construct: purchased BPS Bioscience Inc
Protocol: as §4, §5, §6

[2] = 10 mg/mL cpd in 20% DMSO/saline
DU-145 (prostate cancer) = test: MTT antiproliferative assay, DU-145; assay type: cell-based; details: Homo sapiens, DU-145; MTT, 48 h; read-out: Antiproliferative Activity GI50, Prostate DU-145
Protocol: as §7

SKOV-3 (ovarian) = test: MTT antiproliferative assay, SKOV-3; assay type: cell-based; details: Homo sapiens, SK-OV-3; MTT, 48 h; read-out: Antiproliferative Activity GI50, Ovarian SKOV-3
Protocol: as §7

COLO-205 (colon cancer) = test: MTT antiproliferative assay, COLO-205; assay type: cell-based; details: Homo sapiens, COLO 205; MTT, 48 h; read-out: Antiproliferative Activity GI50, Colon COLO-205
Protocol: as §7

[3] = tested on: MDA-MB-231 (breast cancer); test: MTT antiproliferative assay, MDA-MB-231; assay type: cell-based; details: Homo sapiens, MDA-MB-231; MTT, 48 h; read-out: Antiproliferative Activity GI50, Breast MDA-MB-231
Protocol: as §7

[4] = tested on: colon (HCT-116), cervical (HeLa), and renal (RFX393) tumor cell lines; test: MTT antiproliferative assay, all three tumor cell lines; assay type: cell-based; details: HCT-116, HeLa, RFX393; summary of Table 3; read-out: GI50 values against all three tumor cell lines
Protocol: as §7

histones H3 and H4 = details: 30 min time point; cited from earlier work
adult mice = details: cited from earlier work
[5] = Class IIa HDAC, compounds reduced by TCEP prior to assay, read-out: IC50 of HDAC4
[6] = Class I HDAC, compounds reduced by TCEP prior to assay, read-out: IC50 of HDAC1

T1 sequence (P56524 whole entry): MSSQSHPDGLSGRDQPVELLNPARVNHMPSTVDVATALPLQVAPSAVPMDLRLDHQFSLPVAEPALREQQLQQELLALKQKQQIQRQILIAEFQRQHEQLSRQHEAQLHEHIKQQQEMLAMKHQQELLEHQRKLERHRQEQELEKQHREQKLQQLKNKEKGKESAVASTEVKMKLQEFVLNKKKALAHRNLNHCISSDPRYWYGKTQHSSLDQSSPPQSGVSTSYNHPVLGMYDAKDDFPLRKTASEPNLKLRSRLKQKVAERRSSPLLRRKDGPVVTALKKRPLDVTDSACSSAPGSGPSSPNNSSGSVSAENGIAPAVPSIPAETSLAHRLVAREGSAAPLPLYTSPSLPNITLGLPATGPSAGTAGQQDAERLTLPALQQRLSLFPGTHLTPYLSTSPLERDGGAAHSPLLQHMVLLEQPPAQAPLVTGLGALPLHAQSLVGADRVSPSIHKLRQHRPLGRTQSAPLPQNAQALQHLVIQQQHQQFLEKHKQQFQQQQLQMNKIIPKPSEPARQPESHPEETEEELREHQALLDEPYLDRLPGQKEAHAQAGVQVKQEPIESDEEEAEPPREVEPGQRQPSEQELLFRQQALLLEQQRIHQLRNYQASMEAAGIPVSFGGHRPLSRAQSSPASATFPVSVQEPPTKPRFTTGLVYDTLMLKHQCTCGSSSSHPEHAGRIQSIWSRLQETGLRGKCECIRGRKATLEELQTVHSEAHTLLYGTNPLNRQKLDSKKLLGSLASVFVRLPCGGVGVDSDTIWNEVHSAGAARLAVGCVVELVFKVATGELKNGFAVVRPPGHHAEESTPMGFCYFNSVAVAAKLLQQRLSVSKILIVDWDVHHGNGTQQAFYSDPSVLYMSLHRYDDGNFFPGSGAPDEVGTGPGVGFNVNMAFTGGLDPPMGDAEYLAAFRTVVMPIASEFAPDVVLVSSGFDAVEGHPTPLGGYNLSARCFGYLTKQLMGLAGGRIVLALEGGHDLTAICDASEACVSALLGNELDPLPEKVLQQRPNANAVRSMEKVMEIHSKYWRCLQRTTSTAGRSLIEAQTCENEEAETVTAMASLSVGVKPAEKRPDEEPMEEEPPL
T2 sequence (Q13547 whole entry): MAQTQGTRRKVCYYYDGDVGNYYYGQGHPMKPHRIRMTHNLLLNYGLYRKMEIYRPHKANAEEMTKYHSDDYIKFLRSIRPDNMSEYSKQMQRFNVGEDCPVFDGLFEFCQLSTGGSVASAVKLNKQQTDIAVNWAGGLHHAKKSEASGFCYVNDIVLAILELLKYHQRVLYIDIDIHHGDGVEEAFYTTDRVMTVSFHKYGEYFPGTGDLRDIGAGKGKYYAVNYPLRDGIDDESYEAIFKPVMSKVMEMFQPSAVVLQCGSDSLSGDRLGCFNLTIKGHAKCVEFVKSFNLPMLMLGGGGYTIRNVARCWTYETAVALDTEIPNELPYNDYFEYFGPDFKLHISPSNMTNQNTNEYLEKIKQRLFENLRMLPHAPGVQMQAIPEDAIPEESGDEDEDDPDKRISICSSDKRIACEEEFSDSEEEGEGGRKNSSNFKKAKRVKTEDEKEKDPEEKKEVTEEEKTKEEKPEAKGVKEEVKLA
T3 sequence (O15379 whole entry): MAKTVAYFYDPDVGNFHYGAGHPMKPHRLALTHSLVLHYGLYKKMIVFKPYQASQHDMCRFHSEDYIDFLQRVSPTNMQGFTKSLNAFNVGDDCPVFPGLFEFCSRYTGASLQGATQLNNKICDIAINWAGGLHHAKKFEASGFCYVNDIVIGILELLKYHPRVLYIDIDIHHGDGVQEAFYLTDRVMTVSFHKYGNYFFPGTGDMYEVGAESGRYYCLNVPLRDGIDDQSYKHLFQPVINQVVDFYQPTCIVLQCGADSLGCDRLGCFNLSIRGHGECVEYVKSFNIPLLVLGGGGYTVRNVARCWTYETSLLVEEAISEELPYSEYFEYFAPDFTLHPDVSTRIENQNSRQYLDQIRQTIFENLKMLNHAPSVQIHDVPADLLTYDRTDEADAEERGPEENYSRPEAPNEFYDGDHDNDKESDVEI
T3 sequence (Q9Y618 395-489 partner limits assumed): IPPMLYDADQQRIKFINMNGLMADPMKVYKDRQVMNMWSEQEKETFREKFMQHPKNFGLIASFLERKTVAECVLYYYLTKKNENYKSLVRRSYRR
T5 sequence (Q92769 whole entry): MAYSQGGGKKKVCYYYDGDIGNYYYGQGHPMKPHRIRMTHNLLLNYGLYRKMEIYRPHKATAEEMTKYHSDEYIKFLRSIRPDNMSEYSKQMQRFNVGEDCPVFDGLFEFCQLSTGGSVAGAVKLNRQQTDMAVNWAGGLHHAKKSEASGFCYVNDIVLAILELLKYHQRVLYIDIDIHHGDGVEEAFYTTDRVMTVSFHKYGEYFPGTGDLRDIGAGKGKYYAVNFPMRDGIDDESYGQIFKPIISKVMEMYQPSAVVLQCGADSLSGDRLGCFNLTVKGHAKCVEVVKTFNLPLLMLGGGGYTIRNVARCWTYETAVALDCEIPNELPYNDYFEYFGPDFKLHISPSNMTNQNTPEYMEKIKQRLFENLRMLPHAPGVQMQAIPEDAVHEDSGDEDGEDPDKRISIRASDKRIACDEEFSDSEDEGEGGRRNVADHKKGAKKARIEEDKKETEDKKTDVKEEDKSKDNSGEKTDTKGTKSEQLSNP

Row | Compound | MTD at 2 weeks [1] | IC50 (Recombinant human HDAC4; [5]) | fold less active toward all class I HDACs (class I HDACs) | IC50 (Recombinant human HDAC3) | GI50 (HCT-116 (colon cancer); HCT-116, MTT, 48 h) | IC50 (Recombinant human HDAC8) | GI50 (HeLa (cervical cancer); MTT) | GI50 (RFX393 (renal); MTT) | IC50 (Recombinant human HDAC2) | Solubility [2] | IC50 (Recombinant human HDAC1; [6]) | Class I selectivity Ratio HDAC 1/HDAC8 (Recombinant human HDAC1) | further results
1 | C/C=C1\NC(=O)[C@H]2CSSCC/C=C/[C@H](CC(=O)N[C@H](C(C)C)C(=O)N2)OC(=O)[C@H](C(C)C)NC1=O [FK228, romidepsin, reference compound] |  |  |  |  |  |  |  |  |  |  |  |  | MTD at 2 weeks ([1]; MTD (toxicity in healthy BALB/c mice), single IP dose, observed 2 weeks): 3.25 mg/kg; MTD (toxicity in healthy BALB/c mice) (BALB/c mice; single IP dose, observed 2 weeks): 3.125 mg/kg; IC50 (Recombinant human HDAC4): 2.37 µM; GI50 (HCT-116 (colon cancer); HCT-116, 48 h): 0.0012 µM; GI50 (HeLa (cervical cancer)): 0.0013 µM; GI50 (RFX393 (renal)): 0.0012 µM; IC50 (Recombinant human HDAC1): 0.0038 µM
2 | CCC(C)C(NC(=O)CC(O)/C=C/CCS)C(=O)OC (centres unmarked) [TDF4m] | > 200 mg/kg | > 1000 µM | about 10 fold | 0.0971 µM | 31 µM | 117 µM | 20.1 µM | 32.1 µM | 2.12 µM | Soluble | 0.0303 µM | 0.00061 | 
3 | CCCC[C@H](NC(=O)CC(O)/C=C/CCS)C(=O)O (some centres unmarked) [TDF5] | > 200 mg/kg | > 1000 µM |  | 0.839 µM | 0.4 µM | 49.4 µM | 0.4 µM | 0.5 µM | 0.0459 µM | Mostly soluble | 0.0026 µM | 0.00002 | MTD (toxicity in healthy BALB/c mice) (BALB/c mice; BALB/c, mouse, in vivo, ip, 2 weeks): >200 mg/kg; GI50 (DU-145 (prostate cancer)): 0.6 µM; GI50 (SKOV-3 (ovarian)): 0.7 µM; GI50 (COLO-205 (colon cancer)): 0.9 µM; GI50 [3]: 0.5 µM; GI50 [4]: 0.5 µM
4 | CCCC[C@H](NC(=O)CC(O)/C=C/CCS)C(=O)OC (some centres unmarked) [TDF5m] | > 200 mg/kg | > 1000 µM | about 10 fold | 0.124 µM | 32.6 µM | 133 µM | 30.2 µM | 40.1 µM | 1.66 µM | Soluble | 0.0265 µM | 0.00159 | 
5 | COC(=O)[C@@H](NC(=O)CC(O)/C=C/CCS)C(C)C (some centres unmarked) [TDF6m] | > 200 mg/kg | > 1000 µM | about 10 fold | 0.1 µM | 28.4 µM | 100 µM | 25.6 µM | 31.7 µM | 1.93 µM | Soluble | 0.0302 µM |  | 
6 | CC(/C=C/C(=O)NO)=C\[C@@H](C)C(=O)c1ccc(N(C)C)cc1 [TSA, trichostatin-A] |  |  |  |  |  |  |  |  |  |  |  |  | acetylation of histones H3 and H4 in dorsal hippocampus (histones H3 and H4): increases the acetylation of histones H3 and H4; object recognition memory 48 h after training (adult mice; single treatment immediately after training, 16.5 mM, chance 15 s): completely intact object recognition memory; also recorded: spent more time than chance; object recognition memory, treatment delayed 3 h after training (adult mice; treatment delayed for 3 h after training): did not enhance memory
